Results on one compound are retold here after US20110065138A1, “Quantitative Method For Detecting Yessotoxins In Fishery Products On Based On The Activation That The Toxin Produces In Cellular Phosphodiesterases And Therapeutic Use Of This Activation” (UNIVERSIDADE DE SANTIAGO DE COMPOSTELA, priority 2003, published 2011).

In experiment [1] the test system is rat mastocytes. The experiment in a line: Inhibition of histamine release induced by immunological stimulus (ovalbumin) in rat mastocytes. Format: cell-based. The text has this: Immunological activation of mastocytes and basophils requires a temporary increase of cAMP. This increase is indispensable for cell response activation (Botana and MacGlashan, 1994). PDE activation cancels this initial cAMP peak, and therefore prevents cell activation. In the presence of YTX, i.e. with activated PDEs, cell response will be inhibited. The inhibiting effect can be used in antiallergic or antiasthmatic therapeutic strategies, these being two pathologies in which mastocytes play a predominant role (Metcalfe, Baram, D. et al., 1997). The present use describes the quantification of the inhibition that YTX produces on cell activation induced by immunological stimulus in mastocytes in rats. Cell response inhibition can be determined according to different protocols described in the literature. One in which the response is quantified according to the histamine released by mastocytes in rats into the extracellular medium is set forth below (Alfonso, Cabado, A. G. et al., 2000; Estévez, Vieytes, et al., 1994).
a.—The rats are sensitized 15 days before conducting the experiment. […]
g.—The histamine is finally quantified, converting it into a fluorescent molecule by reaction in a base medium with o-phthalic dialdehyde. The reaction is stopped with hydrochloric acid and the fluorescence is read at 360 nm excitation and 460 nm emission.

Experiment [2] has as its system cellular phosphatases. To be noted: in contrast to okadaic acid (Draisci, Lucentini et al., 2000); cited from earlier work.
Experiment [3] concerns HEP-G2 cells. The experiment in a line: HEP-G2 cell growth inhibition by crystal violet staining. Format: cell-based. Particulars: Homo sapiens, HepG2, 10 μM of YTX, 48 hours incubation, absorbance 595 nm. An excerpt:
Neoplasic cell growth inhibition is an indicator of antitumor activity widely used to describe antineoplasic properties of new drugs. […] The ability of YTX as a cytotoxic drug for hepatic carcinoma tumor cells is quantified in the present use. Cell growth inhibition can be determined according to different protocols described in the literature. One of these protocols is set forth below in which the response is quantified in the HEP-G2 cell line by means of crystal violet staining and subsequent acetylation.
a.—HEP-G2 cells are seeded on a microtitration plate with a density of 10000 cells per well. They are incubated for 24 hours with growth medium at 37° C. and 5% CO2.
b.—Different concentrations of YTX are added and it is incubated for 48 hours at 37° C. and 5% CO2.
c.—10 μL of 11% glutaraldehyde are added to fix the cells and it is incubated for 15 minutes. It is washed 3-4 times with distilled water.
d.—A 0.1% solution of crystal violet is added and the plate is shaken for 15 minutes.
e.—The dye is removed by washing with distilled water and it is subsequently dried.
f.—10% acetic acid is added and shaking is maintained for 15 minutes.
g.—Absorbance is read in a spectrophotometer at 595 nanometers.
h.—It was found with this protocol that 10 μM of YTX induce cell growth inhibition of about 82+/−1%.

For experiment [4], the system named is cellular phosphodiesterases (PDEs). The experiment in a line: Activation of cellular phosphodiesterases (destruction of cAMP). Format: biochemical. An excerpt: A usual way of detecting cellular PDE activity is to observe their ability to destroy cAMP. There is a fluorescent derivative of cAMP, anthraniloyl-cAMP (excitation wavelength: 350 nm, emission wavelength: 445 nm), the fluorescence of which decreases as it degrades. The decrease of fluorescence over time can be expressed as the destruction rate of cAMP. In the presence of PDEs, the destruction rate increases, and if these enzymes are activated, the degradation rate will be even greater. In the present invention the degradation rate of the fluorescent indicator anthraniloyl-cAMP in the presence of PDEs is determined and its variation when samples with YTX are added is studied. Fluorescence is read with a fluorimeter that is prepared for reading microtitration plates. The destruction rate is determined in the presence of several known concentrations of YTX. […]
The method is carried out in a microtitration plate in a temperature range between 22 and 37° C. and the fluorescence is measured at an excitation wavelength of 360 nanometers and an emission wavelength of 460 nanometers.
a.—Test buffer (10 mM Tris HCl+1 mM CaCl2 pH 7.4) is added in all the wells for a final incubation volume of 100 μL, and the corresponding amount, depending on the type of well, of anthraniloyl-cAMP. A first reading is performed for 2 minutes. […]

With `C=CCC(=C)/C=C/[C@@](C)(O)[C@H]1O[C@@H]2C[C@@H]3O[C@@H]4C[C@@H]5O[C@@H]6C[C@@H]7O[C@@H]8C[C@@H]9O[C@@H]%10C[C@@H]%11O[C@](C)(CCOS(=O)(=O)O)[C@@H](OS(=O)(=O)O)C[C@H]%11O[C@H]%10C[C@H]9O[C@H]8CC[C@@]7(C)O[C@@]6(C)CC[C@H](C)[C@H]5O[C@H]4C[C@@]3(C)O[C@H]2CC1=C` [YTX, yessotoxin], the “effect on histamine release activated by immunological stimulus” value in experiment [1] is reported as “histamine release inhibitor”. In addition, the “effect on cellular phosphatases” value in experiment [2] was “does not inhibit”. The compound also registered an inhibition at 10 µM in experiment [3] of around 82%. Also, the “effect on PDE activity” value in experiment [4] is “PDE activator”.
